Target: T1, Gag-Pol polyprotein [588-1027]/[588-1147] (Human immunodeficiency virus 1, UniProt P04585)
T1 construct: 588-1027; 588-1147
Experiment: HIV-1 RT Assay

SMILES | IC50 (pH 7.9) [µM] | IC50 [µM]
COC(=O)c1cc(C(=CCCCc2ccccc2)c2cc(Br)c(OC)c(C(=O)OC)c2)cc(Br)c1OC [1,1-Bis[3-bromo-4-methoxy-5-(methoxycarbonyl)phenyl]-5-phenyl-1-pentene] | > 100 | 
COC(=O)c1cc(C(=CCCCc2ccccc2)c2cc(Cl)c(OC)c(C(=O)OC)c2)cc(Cl)c1OC [1,1-Bis[3-chloro-4-methoxy-5-(methoxycarbonyl)phenyl]-5-phenyl-1-pentene] | > 100 | 
COC(=O)c1cc(C(=CCCCC(=O)N2CCCCC2)c2cc(Cl)c(OC)c(C(=O)OC)c2)cc(Cl)c1OC [6,6-Bis(3-chloro-4-methoxy-5-methoxycarbonylphenyl)-1-piperidylhex-5-en-1-one] |  | > 100
COC(=O)CCCC=C(c1cc(C(=O)OC)c(OC)c(C(F)(F)F)c1)c1cc(C(=O)OC)c(OC)c(C(F)(F)F)c1 [Alkenyldiarylmethane (ADAM) 18a] | > 200 | 
COC(=O)c1cc(C(=CCCCC(=O)OC(C)C)c2cc(Cl)c(OC)c(C(=O)OC)c2)cc(Cl)c1OC [Alkenyldiarylmethane (ADAM) 25a] | > 100 | 
COC(=O)c1cc(C(=CCCCC(OC)OC)c2cc(Cl)c(OC)c(C(=O)OC)c2)cc(Cl)c1OC [Alkenyldiarylmethane (ADAM) 38a] |  | > 100
COC(=O)c1cc(C(=CCCNC(C)=O)c2cc(Cl)c(OC)c(C(=O)OC)c2)cc(Cl)c1OC [Methyl 5-{4-(Acetylamino)-1-[3-chloro-4-methoxy-5-(methoxycarbonyl)phenyl]but-1-enyl}-3-chloro-2-methoxybenzoate] |  | > 100
COC(=O)c1cc(C(=CCCCC(=O)OCC[Si](C)(C)C)c2cc(C)c(OC)c(C(=O)OC)c2)cc(C)c1OC [methyl 2-methoxy-5-{1-[4-methoxy-3-(methoxycarbonyl)-5-methylphenyl]-6-oxo-6-[2-(trimethylsilyl)ethoxy]hex-1-en-1-yl}-3-methylbenzoate] |  | > 100
CCNC(=O)NCCC=C(c1cc(Cl)c(OC)c(C(=O)OC)c1)c1cc(Cl)c(OC)c(C(=O)OC)c1 [methyl 3-chloro-5-{1-[3-chloro-4-methoxy-5-(methoxycarbonyl)phenyl]-4-[(ethylcarbamoyl)amino]but-1-en-1-yl}-2-methoxybenzoate] |  | > 100
CNC(=S)NCCC=C(c1cc(Cl)c(OC)c(C(=O)OC)c1)c1cc(Cl)c(OC)c(C(=O)OC)c1 [methyl 3-chloro-5-{1-[3-chloro-4-methoxy-5-(methoxycarbonyl)phenyl]-4-[(methylcarbamothioyl)amino]but-1-en-1-yl}-2-methoxybenzoate] |  | > 100

From BindingDB's records for doi:10.1021/jm010212m (Purdue University, 2001)
